Reference: ChEMBL document CHEMBL4321874 (J Med Chem, 2020)
Each block holds one compound with its values, some of them ahead of it.

Key:
[1] = Drug metabolism assessed as (4bS)-2-(3-Methyl-1H-pyrazol-4-yl)-5,6,7,8-tetrahydropyrido-[1',2':3,4]imidazo[1,5-a]thieno[3,2-d]pyrimidin-12(4bH)-one formaldehyde adduct formation by measuring retention time at 5 nmol after 30 mins in presence of excess formaldehyde by QTOF-UPLC analysis; type: physicochemical; conditions: 0.5 h
[2] = molecular target: Rho-associated protein kinase 1 (Homo sapiens, UniProt Q13464); experiment: Inhibition of N-terminal GST-tagged human ROCK1 catalytic domain (1 to 477 residues) expressed in baculovirus expression system using biotin-STK-substrate 2 as substrate preincubated with enzyme for 5 mins followed by ATP addition and measured after 2 hrs by TR-FRET assay
[3] = molecular target: CDK8/Cyclin C (Homo sapiens, UniProt P49336); experiment: Inhibition of kinase tracer 236 binding to recombinant full-length human His-tagged CDK8/CyclinC expressed in baculovirus expression system by Lanthascreen Eu kinase binding assay
[4] = molecular target: Homeodomain-interacting protein kinase 4 (Homo sapiens, UniProt Q8NE63); experiment: Inhibition of recombinant full-length human N-terminal GST-tagged HIPK4 expressed in baculovirus expression system by Z'-LYTE assay
[5] = AUC(0 to 8 hrs) in mouse at 10 mg/kg, po dosed via cassette dosing; type: ADME, organism-based; parameters: time < 6 hr, dose 10 mg/kg, route oral; conditions: in vivo
[6] = Toxicity in BALB/c mouse xenografted with human COLO205 cells assessed as effect on body weight at 50 to 100 mg/kg , po adminstered BID for 14 days and measured every 2 to 3 days; type: organism-based; conditions: in vivo
[7] = molecular target: T1, Cell division cycle 7-related protein kinase (Homo sapiens, UniProt O00311); experiment: Inhibition of CDC7 in human HeLa cells assessed as inhibition of MCM2 phosphorylation at Ser40 residue in human HeLa cells after 7 hrs by Western blot analysis; type: cell-based
[8] = molecular target: T2, CDC7/DBF4 (Cell division cycle 7-related protein kinase/Activator of S phase kinase) (Homo sapiens, UniProt O00311); experiment: Inhibition of N-terminal GST-fused full-length human CDC7 (1 to 574 end residues)/DBF4 (1 to 674 residues) expressed in baculovirus expression system using MCM2 as substrate in presence of 50 uM ATP by HTRF transcreener ADP assay
[9] = molecular target: Dual specificity tyrosine-phosphorylation-regulated kinase 1B (Homo sapiens, UniProt Q9Y463); experiment: Inhibition of recombinant full-length human GST-tagged DYRK1B expressed in baculovirus expression system by Z'-LYTE assay
[10] = molecular target: T2, CDC7/DBF4 (Cell division cycle 7-related protein kinase/Activator of S phase kinase); experiment: Inhibition of N-terminal GST-fused full-length human CDC7 (1 to 574 end residues)/DBF4 (1 to 674 residues) expressed in baculovirus expression system using MCM2 as substrate preincubated with enzyme for 60 mins prior to 50 uM ATP addition by HTRF transcreener ADP assay
[11] = molecular target: Dual specificity tyrosine-phosphorylation-regulated kinase 1A (Homo sapiens, UniProt Q13627); experiment: Inhibition of recombinant full-length human GST-tagged DYRK1A expressed in baculovirus expression system by Z'-LYTE assay
[12] = tested on: Mus musculus; experiment: In vivo inhibition of CDC7 in BALB/c mouse xenografted with human COLO205 cells assessed as reduction in MCM2 phosphorylation at Ser40/41 residue in tumor at 100 mg/kg, po after 4 hrs by Western blot analysis; type: functional; conditions: COLO 205, po
[13] = molecular target: Death-associated protein kinase 1 (Homo sapiens, UniProt P53355); experiment: Inhibition of recombinant human N-terminal GST-tagged DAPK1 catalytic domain (1 to 363 residues) expressed in baculovirus expression system by Adapta kinase assay
[14] = molecular target: T1, Cell division cycle 7-related protein kinase; experiment: Inhibition of ATP-specific reporter probe binding to CDC7 (unknown origin) assessed as equilibrium dissociation constant incubated for 60 mins by proteros reporter displacement assay
[15] = molecular target: T2, CDC7/DBF4 (Cell division cycle 7-related protein kinase/Activator of S phase kinase); experiment: Inhibition of N-terminal GST-fused full-length human CDC7 (1 to 574 end residues)/DBF4 (1 to 674 residues) expressed in baculovirus expression system using MCM2 as substrate preincubated with enzyme for 10 mins prior to 1 uM ATP addition by HTRF transcreener ADP assay
[16] = molecular target: Cyclin-dependent kinase 2/cyclin E1 (Homo sapiens, UniProt P24941); experiment: Inhibition of N-terminal GST-tagged full-length human CDK2 (1 to 298 residues)/Cyclin E (1 to 410 residues) expressed in baculovirus expression system using histone H1 as susbtrate after 90 mins by Kinase-Glo luminescence assay
[17] = tested on: COLO 205; experiment: Antiproliferative activity against human COLO205 cells assessed as reduction in cell growth after 3 days by CellTiter-Glo luminescence assay; type: functional, cell-based; conditions: COLO 205, 72 h
[18] = tested on: COLO 205; experiment: Antitumour activity against human COLO205 cells xenografted in Balb/c mouse assessed as inhibition of tumor growth at 50 to 100 mg/kg, po administered BID for 14 days and measured every 2 to 3 days relative to untreated control; type: functional
[19] = Cmax in mouse at 10 mg/kg, po dosed via cassette dosing; type: ADME, organism-based; parameters: dose 10 mg/kg, route oral; conditions: in vivo
[20] = molecular target: Dual specificity protein kinase CLK1 (Homo sapiens, UniProt P49759); experiment: Inhibition of recombinant human GST-tagged CLK1 catalytic domain (129 to 484 residues) expressed in Escherichia coli by Z'-LYTE assay
[21] = molecular target: Myotonin-protein kinase (Homo sapiens, UniProt Q09013); experiment: Inhibition of kinase tracer 236 binding to recombinant full-length human GST-tagged DMPK expressed in baculovirus expression system by Lanthascreen Eu kinase binding assay

Compound: Cc1n[nH]cc1-c1cc2nc([C@@H]3CCCCN3)[nH]c(=O)c2s1
Retention_time [1]: 4.31 min

IC50 [2]: 420 nM | IC50 [3]: 351 nM | IC50 [4]: 176 nM | AUC(0-t) at 6 h [5]: 1350 ng·h/mL | IC50 [7]: 36 nM | IC50 [8]: 120 nM | IC50 [9]: 78.6 nM | IC50 [10]: 0.41 nM | IC50 [11]: 59 nM | Kd [14]: 1.96 nM | IC50 [15]: 0.44 nM | IC50 [16]: 6500 nM | EC50 [17]: 130 nM | Cmax [19]: 978 ng/mL | IC50 [20]: 310 nM | IC50 [21]: 64.6 nM
Compound: Cc1n[nH]cc1-c1cc2nc([C@@H]3CCCCN3)[nH]c(=O)c2s1.Cl.Cl
Activity [6]: Non-Toxic | inhibition in vivo at 100 mg/kg [12]: 72% | IC50 [13]: 203 nM | T/C [18]: 6%
